# Experimental data reported in patent US20240182487A1, “MACROCYCLES AND THEIR USE” (BLOSSOMHILL THERAPEUTICS, INC., priority 2020, published 2024).
# Assays:
# Format in all cases: biochemical
# [1] = target: EGFR Δ746-750/C797S mutant (Homo sapiens (Human), UniProt P00533, C797S/DEL746-750); assay: HotSpot radiometric kinase assay, EGFR Δ746-750/C797S; settings: radiometric filter-binding, 10 μM ATP
# Description: (§1) Biochemical Assays for Inhibition of Wild-Type and Mutant EGFRs
# (§2) The inhibitory activities against EGFR WT, EGFR Δ752-759 mutant, EGFR Δ746-750/T790M mutant, EGFR Δ746-750/C797S mutant, EGFR Δ746-750/T790M/C797S mutant. […] Briefly, specific kinase/substrate pairs along with required cofactors were prepared in reaction buffer; 20 mM Hepes pH 7.5, 10 mM MgCl2, 1 mM EGTA, 0.02% Brij35, 0.02 mg/ml BSA, 0.1 mM Na3VO4, 2 mM DTT, 1% DMSO. Compounds were delivered into the reaction, followed ˜20 minutes later by addition of a mixture of ATP (Sigma, St. Louis MO) and ^33P ATP (Perkin Elmer, Waltham MA) to a final concentration of 10 μM. Reactions were carried out at room temperature for 120 min, followed by spotting of the reactions onto P81 ion exchange filter paper (Whatman Inc., Piscataway, NJ). Unbound phosphate was removed by extensive washing of filters in 0.75% phosphoric acid. […] IC50 values and curve fits were obtained using Prism (GraphPad Software).
# EGFR L858R/T790M mutant = EGFR L858R/T790M mutant (Homo sapiens (Human), UniProt P00533, L858R/T790M); assay: HotSpot radiometric kinase assay, EGFR L858R/T790M; settings: radiometric filter-binding, 10 μM ATP; read-out: EGFR (L858R/T790M)_IC50
# EGFR WT = EGFR WT (Homo sapiens (Human), UniProt P00533); assay: HotSpot radiometric kinase assay, EGFR WT; settings: radiometric filter-binding, 10 μM ATP
# Description: as §1, §2
# [2] = target: EGFR Δ746-750/T790M mutant (Homo sapiens (Human), UniProt P00533, DEL746-750/T790M); assay: HotSpot radiometric kinase assay, EGFR Δ746-750/T790M; settings: radiometric filter-binding, 10 μM ATP
# Description: as §1, §2
# [3] = target: EGFR L858R/T790M/C797S mutant (Homo sapiens (Human), UniProt P00533, C797S/L858R/T790M); assay: HotSpot radiometric kinase assay, EGFR L858R/T790M/C797S; settings: radiometric filter-binding, 10 μM ATP; read-out: EGFR (L858R/T790M/C797S/)_IC50
# EGFR L858R/C797S mutant = EGFR L858R/C797S mutant (Homo sapiens (Human), UniProt P00533, C797S/L858R); assay: HotSpot radiometric kinase assay, EGFR L858R/C797S; settings: radiometric filter-binding, 10 μM ATP
# EGFR (Δ746-750) = EGFR (Δ746-750) (Homo sapiens (Human), UniProt P00533, DEL746-750); assay: HotSpot radiometric kinase assay, EGFR Δ746-750; settings: radiometric filter-binding, 10 μM ATP
# EGFR L858R mutant = EGFR L858R mutant (Homo sapiens (Human), UniProt P00533, L858R); assay: HotSpot radiometric kinase assay, EGFR L858R; settings: radiometric filter-binding, 10 μM ATP
# [4] = target: EGFR Δ746-750/T790M/C797S mutant (Homo sapiens (Human), UniProt P00533, C797S/DEL746-750/T790M); assay: HotSpot radiometric kinase assay, EGFR Δ746-750/T790M/C797S; settings: radiometric filter-binding, 10 μM ATP
# Description: as §1, §2
# EGFR Δ746-750/T790M/C797S mutant, sequence (P00533 other isoform, or with tags, fused parts or gaps T790M/C797S/del 1-668/del 746-750 limits assumed): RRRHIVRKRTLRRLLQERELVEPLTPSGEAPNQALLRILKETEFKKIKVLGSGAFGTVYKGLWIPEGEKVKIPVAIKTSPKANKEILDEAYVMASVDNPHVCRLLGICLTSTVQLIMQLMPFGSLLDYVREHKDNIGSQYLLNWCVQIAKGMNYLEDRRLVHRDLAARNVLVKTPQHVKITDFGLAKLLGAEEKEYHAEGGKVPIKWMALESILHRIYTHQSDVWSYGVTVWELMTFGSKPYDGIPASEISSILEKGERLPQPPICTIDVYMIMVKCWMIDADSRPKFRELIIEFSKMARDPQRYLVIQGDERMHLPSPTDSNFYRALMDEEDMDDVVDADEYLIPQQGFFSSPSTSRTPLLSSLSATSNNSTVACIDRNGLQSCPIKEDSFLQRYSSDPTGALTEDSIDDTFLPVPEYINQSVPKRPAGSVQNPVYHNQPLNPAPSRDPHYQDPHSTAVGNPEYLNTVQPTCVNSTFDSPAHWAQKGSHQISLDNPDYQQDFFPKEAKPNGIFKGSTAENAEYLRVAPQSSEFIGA
# EGFR L858R mutant, sequence (P00533 25-1210 L858R): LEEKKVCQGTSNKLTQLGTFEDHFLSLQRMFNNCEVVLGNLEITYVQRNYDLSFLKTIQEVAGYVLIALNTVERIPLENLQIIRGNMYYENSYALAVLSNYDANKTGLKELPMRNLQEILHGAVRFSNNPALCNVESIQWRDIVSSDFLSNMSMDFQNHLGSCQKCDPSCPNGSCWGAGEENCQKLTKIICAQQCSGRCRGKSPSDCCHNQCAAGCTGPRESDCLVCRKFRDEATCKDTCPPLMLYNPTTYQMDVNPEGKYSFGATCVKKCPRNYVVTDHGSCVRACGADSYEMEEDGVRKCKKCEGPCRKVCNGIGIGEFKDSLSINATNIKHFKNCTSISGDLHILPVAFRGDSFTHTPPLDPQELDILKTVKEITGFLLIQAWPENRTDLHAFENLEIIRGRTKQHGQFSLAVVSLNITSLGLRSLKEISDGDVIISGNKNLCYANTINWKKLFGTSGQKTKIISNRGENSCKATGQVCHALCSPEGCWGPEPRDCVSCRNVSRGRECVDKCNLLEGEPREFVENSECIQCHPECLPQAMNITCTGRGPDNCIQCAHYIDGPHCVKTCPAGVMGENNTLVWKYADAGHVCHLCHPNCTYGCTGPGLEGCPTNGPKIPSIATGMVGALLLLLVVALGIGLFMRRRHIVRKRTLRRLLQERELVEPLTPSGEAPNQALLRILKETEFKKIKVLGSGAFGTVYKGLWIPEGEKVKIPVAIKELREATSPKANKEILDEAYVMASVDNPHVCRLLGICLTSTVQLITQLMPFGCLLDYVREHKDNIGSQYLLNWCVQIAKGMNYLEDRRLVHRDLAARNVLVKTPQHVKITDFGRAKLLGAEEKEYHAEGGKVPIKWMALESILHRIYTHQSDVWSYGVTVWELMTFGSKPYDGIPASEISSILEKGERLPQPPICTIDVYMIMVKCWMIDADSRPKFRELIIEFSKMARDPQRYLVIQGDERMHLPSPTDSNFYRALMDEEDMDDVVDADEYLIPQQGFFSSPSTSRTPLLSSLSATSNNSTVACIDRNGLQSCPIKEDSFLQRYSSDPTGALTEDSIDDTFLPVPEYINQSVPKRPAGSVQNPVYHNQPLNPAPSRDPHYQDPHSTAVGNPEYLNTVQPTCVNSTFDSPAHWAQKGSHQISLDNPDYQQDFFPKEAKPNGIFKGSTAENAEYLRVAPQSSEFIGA
# EGFR Δ746-750/C797S mutant, sequence (P00533 other isoform, or with tags, fused parts or gaps C797S/del 1-668/del 746-750 limits assumed): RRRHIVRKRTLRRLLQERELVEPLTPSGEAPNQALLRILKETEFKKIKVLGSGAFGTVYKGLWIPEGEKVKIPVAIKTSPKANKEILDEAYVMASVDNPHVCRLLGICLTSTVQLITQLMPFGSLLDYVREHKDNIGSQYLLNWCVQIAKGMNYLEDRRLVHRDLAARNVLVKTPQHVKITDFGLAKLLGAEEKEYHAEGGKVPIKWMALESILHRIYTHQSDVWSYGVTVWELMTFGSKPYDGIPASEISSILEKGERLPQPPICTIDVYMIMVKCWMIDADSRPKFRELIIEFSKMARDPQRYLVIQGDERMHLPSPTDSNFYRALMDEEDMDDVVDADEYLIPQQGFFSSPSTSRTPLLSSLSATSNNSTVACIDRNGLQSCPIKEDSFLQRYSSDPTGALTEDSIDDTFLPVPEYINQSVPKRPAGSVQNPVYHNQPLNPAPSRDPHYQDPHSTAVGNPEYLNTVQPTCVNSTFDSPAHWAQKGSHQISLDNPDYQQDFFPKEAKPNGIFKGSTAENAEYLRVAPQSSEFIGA
# EGFR (Δ746-750), sequence (P00533 other isoform, or with tags, fused parts or gaps del 1-668/del 746-750 limits assumed): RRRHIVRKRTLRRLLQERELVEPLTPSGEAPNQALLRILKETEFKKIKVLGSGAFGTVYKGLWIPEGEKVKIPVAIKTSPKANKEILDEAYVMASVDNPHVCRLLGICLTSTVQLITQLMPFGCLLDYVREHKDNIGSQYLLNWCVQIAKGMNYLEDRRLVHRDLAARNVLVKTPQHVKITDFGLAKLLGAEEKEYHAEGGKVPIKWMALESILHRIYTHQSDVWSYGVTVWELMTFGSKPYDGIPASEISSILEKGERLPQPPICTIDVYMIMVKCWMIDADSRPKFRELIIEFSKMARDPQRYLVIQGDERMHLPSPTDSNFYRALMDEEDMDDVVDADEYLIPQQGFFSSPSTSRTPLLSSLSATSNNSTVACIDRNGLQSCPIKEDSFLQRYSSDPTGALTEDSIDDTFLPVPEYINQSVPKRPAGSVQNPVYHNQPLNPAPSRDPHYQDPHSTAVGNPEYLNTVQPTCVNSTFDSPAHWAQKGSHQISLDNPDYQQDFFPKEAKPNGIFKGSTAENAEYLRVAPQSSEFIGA
# EGFR WT, sequence (P00533 25-1210): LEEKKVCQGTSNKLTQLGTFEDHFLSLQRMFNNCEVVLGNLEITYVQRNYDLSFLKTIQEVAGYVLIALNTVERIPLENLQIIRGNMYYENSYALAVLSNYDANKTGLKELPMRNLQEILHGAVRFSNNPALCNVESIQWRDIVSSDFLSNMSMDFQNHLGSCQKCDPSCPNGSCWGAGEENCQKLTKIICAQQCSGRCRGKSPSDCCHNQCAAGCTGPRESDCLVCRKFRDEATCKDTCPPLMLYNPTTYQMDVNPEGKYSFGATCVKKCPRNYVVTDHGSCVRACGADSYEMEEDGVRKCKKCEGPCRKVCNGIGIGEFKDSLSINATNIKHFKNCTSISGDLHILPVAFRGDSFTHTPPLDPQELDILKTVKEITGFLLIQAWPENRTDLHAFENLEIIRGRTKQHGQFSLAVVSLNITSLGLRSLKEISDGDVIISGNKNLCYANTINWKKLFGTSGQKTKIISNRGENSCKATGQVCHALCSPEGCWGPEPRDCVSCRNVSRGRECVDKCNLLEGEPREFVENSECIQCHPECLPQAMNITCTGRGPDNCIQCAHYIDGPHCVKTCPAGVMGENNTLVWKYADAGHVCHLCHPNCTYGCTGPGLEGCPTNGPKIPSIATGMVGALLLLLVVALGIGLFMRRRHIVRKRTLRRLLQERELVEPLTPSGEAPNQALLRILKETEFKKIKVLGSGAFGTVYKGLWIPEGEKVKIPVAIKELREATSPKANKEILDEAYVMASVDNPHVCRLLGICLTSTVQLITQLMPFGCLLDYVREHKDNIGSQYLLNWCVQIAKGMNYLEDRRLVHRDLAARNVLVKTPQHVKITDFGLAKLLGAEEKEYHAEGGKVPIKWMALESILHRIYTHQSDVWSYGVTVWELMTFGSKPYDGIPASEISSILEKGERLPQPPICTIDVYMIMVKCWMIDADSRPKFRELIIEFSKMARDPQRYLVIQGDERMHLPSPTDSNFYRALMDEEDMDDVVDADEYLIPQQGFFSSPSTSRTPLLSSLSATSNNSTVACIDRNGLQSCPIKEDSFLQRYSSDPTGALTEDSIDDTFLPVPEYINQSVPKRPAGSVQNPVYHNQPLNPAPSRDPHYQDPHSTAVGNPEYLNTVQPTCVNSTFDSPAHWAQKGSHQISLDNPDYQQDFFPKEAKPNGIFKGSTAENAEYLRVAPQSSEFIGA
# EGFR Δ746-750/T790M mutant, sequence (P00533 other isoform, or with tags, fused parts or gaps T790M/del 1-668/del 746-750 limits assumed): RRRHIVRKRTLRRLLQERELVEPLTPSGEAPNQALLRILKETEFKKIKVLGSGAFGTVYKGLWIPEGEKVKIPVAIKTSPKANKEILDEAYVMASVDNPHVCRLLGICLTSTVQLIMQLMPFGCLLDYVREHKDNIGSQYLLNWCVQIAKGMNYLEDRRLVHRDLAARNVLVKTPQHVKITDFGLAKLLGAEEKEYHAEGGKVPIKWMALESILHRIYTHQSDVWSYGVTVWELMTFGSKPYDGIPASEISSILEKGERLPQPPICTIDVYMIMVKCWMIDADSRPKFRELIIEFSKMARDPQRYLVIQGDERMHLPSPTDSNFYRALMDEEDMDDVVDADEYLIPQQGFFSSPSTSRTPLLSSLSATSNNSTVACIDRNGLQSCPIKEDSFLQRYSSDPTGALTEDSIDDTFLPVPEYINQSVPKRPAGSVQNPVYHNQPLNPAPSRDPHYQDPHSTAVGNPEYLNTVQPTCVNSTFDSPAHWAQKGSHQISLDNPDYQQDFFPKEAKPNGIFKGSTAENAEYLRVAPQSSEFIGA
Structure (SMILES),IC50 [1] [nM],IC50 [2] [nM],IC50 (EGFR (Δ746-750)) [nM],IC50 [4] [nM],further results
"Cn1ncc2c1OCCCOc1ccccc1/C=C/c1n[nH]c3cnc-2cc13 [Cpd. 1, (11E)-1-methyl-19,20-dihydro-1H,8H,18H-10,7,4-(ethan[1]yl[1,2]diylidene)pyrazolo[3,4-f][1,5,9,12,13]benzodioxatriazacyclooctadecine]",4.8,2.1,6.8,0.22,IC50 (EGFR L858R/T790M mutant): 4.1 nM; IC50 (EGFR WT): 46.4 nM; IC50 [3]: 15 nM; IC50 (EGFR L858R/C797S mutant): 55 nM; IC50 (EGFR L858R mutant): 29.1 nM
CN(C)CCNC(=O)c1ccc2c(c1)/C=C/c1n[nH]c3cnc(cc13)-c1cnn(C)c1OCCCO2 [Cpd. 71],–,–,2.4,–,IC50 (EGFR WT): 3.9 nM; IC50 [3]: 3.7 nM; IC50 (EGFR L858R mutant): 1.6 nM
"CN1CCOCCN(c2ccc(F)c(Cl)c2)c2cc3c(n[nH]c3cn2)/C=C/c2cn(C)nc2C1=O [Cpd. 99, (17E)-6-(3-chloro-4-fluorophenyl)-12,15-dimethyl-2,7,8,11,12,15-hexahydro-6H-5,3-(azenometheno)dipyrazolo[3,4-f:3′,4′-j][1,4,14]oxadiazacyclohexadecin-13(10H)-one]",11.3,8530,84.4,3380,–
"Cn1ncc2c1COCCOc1ccccc1/C=C/c1n[nH]c3cnc-2cc13 [Cpd. 63, (11E)-1-methyl-1,18,19,21-tetrahydro-8H-10,7,4-(ethan[1]yl[1,2]diylidene)pyrazolo[3,4-f][1,4,9,12,13]benzodioxatriazacyclooctadecine]",7.7,2.8,14.9,0.2,–
"Cn1ncc2c1OCCCOc1ccccc1/C=C/c1n[nH]c3ccc-2cc13 [Cpd. 3, (11E)-1-methyl-19,20-dihydro-1H,8H,18H-10,7,4-(ethan[1]yl[1,2]diylidene)pyrazolo[3,4-f][1,5,12,13]benzodioxadiazacyclooctadecine]",24.4,13.2,79,10.2,IC50 (EGFR L858R/T790M mutant): 138 nM; IC50 (EGFR WT): 1050 nM; IC50 [3]: 278 nM; IC50 (EGFR L858R/C797S mutant): 1070 nM; IC50 (EGFR L858R mutant): 374 nM
"CN(C)CCNC(=O)c1ccc2c(c1)OCCOCc1c(cnn1C)-c1cc3c(n[nH]c3cn1)/C=C/2 [Cpd. 81, (11E)-N-[2-(dimethylamino)ethyl]-1-methyl-1,18,19,21-tetrahydro-8H-10,7,4-(ethan[1]yl[1,2]diylidene)pyrazolo[3,4-f][1,4,9,12,13]benzodioxatriazacyclooctadecine-15-carboxamide]",–,–,40.1,–,IC50 (EGFR WT): 94.6 nM; IC50 [3]: 14.1 nM; IC50 (EGFR L858R mutant): 28.1 nM
"Cc1ccc2c(n1)/C=C/c1n[nH]c3cnc(nc13)-c1cnn(C)c1C(C)OCCO2 (stereo not drawn) [Cpd. 65, (18E)-8,9,16-trimethyl-8,9,11,12-tetrahydro-2H-5,3-(azenometheno)dipyrazolo[3,4-f:4′,3′-j]pyrido[2,3-n][1,4,9]dioxazacyclopentadecine]",34.1,35.9,281,3.9,–
"Cn1ncc2c1COCCOc1ccccc1/C=C/c1n[nH]c3cnc-2nc13 [Cpd. 16, (18E)-8-methyl-8,9,11,12-tetrahydro-2H-5,3-(azenometheno)dipyrazolo[3,4-f:4′,3′-j][1,4,9]benzodioxazacyclopentadecine]",61.3,38.4,32.9,5.1,–
"CCc1nn(C)c2c1/C=C/c1n[nH]c3cnc(cc13)-c1cc(F)ccc1OCCN(C)C2=O [Cpd. 62, (18E)-17-ethyl-7-fluoro-13,15-dimethyl-2,12,13,15-tetrahydro-5,3-(azenometheno)dipyrazolo[3,4-f:3′,4′-j][1,4]benzoxazacyclopentadecin-14(11H)-one]",5.7,4.1,45.5,0.5,–
"COC(=O)c1ccc2c(c1)/C=C/c1n[nH]c3cnc(cc13)-c1cnn(C)c1OCCCO2 [Cpd. 68, methyl (11E)-1-methyl-19,20-dihydro-1H,8H,18H-10,7,4-(ethan[1]yl[1,2]diylidene)pyrazolo[3,4-f][1,5,9,12,13]benzodioxatriazacyclooctadecine-14-carboxylate]",–,–,93.3,–,–
"CC(C)NC(=O)c1ccc2c(c1)OCCCOc1c(cnn1C)-c1cc3c(n[nH]c3cn1)/C=C/2 [Cpd. 77, (11E)-1-methyl-N-(propan-2-yl)-19,20-dihydro-1H,8H,18H-10,7,4-(ethan[1]yl[1,2]diylidene)pyrazolo[3,4-f][1,5,9,12,13]benzodioxatriazacyclooctadecine-15-carboxamide]",–,–,34.6,–,–
"Cc1ccc2c(n1)/C=C/c1n[nH]c3cnc(cc13)-c1cnn(C)c1C(C)OCCO2 (stereo not drawn) [Cpd. 95, (18E)-8,9,16-trimethyl-8,9,11,12-tetrahydro-2H-5,3-(azenometheno)dipyrazolo[3′,4′:9,10;4″,3″:13,14][1,4]dioxacyclopentadecino[6,5-b]pyridine]",–,–,139,–,–
"Cn1ncc2c1COCCOc1ccc(C(=O)O)cc1/C=C/c1n[nH]c3cnc-2cc13 [Cpd. 92, (11E)-1-methyl-1,18,19,21-tetrahydro-8H-10,7,4-(ethan[1]yl[1,2]diylidene)pyrazolo[3,4-f][1,4,9,12,13]benzodioxatriazacyclooctadecine-14-carboxylic acid]",–,–,47.1,–,–
"CN1CC[C@@H](NC(=O)c2ccc3c(c2)OCCCOc2c(cnn2C)-c2cc4c(n[nH]c4cn2)/C=C/3)C1 [Cpd. 82, (11E)-1-methyl-N-[(3R)-1-methylpyrrolidin-3-yl]-19,20-dihydro-1H,8H,18H-10,7,4-(ethan[1]yl[1,2]diylidene)pyrazolo[3,4-f][1,5,9,12,13]benzodioxatriazacyclooctadecine-15-carboxamide]",–,–,28.3,–,–
"CN(C)CCCNC(=O)c1ccc2c(c1)/C=C/c1n[nH]c3cnc(cc13)-c1cnn(C)c1OCCCO2 [Cpd. 70, (11E)-N-[3-(dimethylamino)propyl]-1-methyl-19,20-dihydro-1H,8H,18H-10,7,4-(ethan[1]yl[1,2]diylidene)pyrazolo[3,4-f][1,5,9,12,13]benzodioxatriazacyclooctadecine-14-carboxamide]",–,–,2.9,–,–
"CN(C)CCCNC(=O)c1ccc2c(c1)/C=C/c1n[nH]c3cnc(cc13)-c1cnn(C)c1COCCO2 [Cpd. 91, (11E)-N-[3-(dimethylamino)propyl]-1-methyl-1,18,19,21-tetrahydro-8H-10,7,4-(ethan[1]yl[1,2]diylidene)pyrazolo[3,4-f][1,4,9,12,13]benzodioxatriazacyclooctadecine-14-carboxamide]",–,–,19.7,–,–
"CN1CCC(CNC(=O)c2ccc3c(c2)/C=C/c2n[nH]c4cnc(cc24)-c2cnn(C)c2COCCO3)CC1 [Cpd. 94, (11E)-1-methyl-N-[(1-methylpiperidin-4-yl)methyl]-1,18,19,21-tetrahydro-8H-10,7,4-(ethan[1]yl[1,2]diylidene)pyrazolo[3,4-f][1,4,9,12,13]benzodioxatriazacyclooctadecine-14-carboxamide]",–,–,17.6,–,–
"CN1CCC(NC(=O)c2ccc3c(c2)OCCOCc2c(cnn2C)-c2cc4c(n[nH]c4cn2)/C=C/3)CC1 [Cpd. 85, (11E)-1-methyl-N-(1-methylpiperidin-4-yl)-1,18,19,21-tetrahydro-8H-10,7,4-(ethan[1]yl[1,2]diylidene)pyrazolo[3,4-f][1,4,9,12,13]benzodioxatriazacyclooctadecine-15-carboxamide]",–,–,70,–,–
"COC(=O)c1ccc2c(c1)/C=C/c1n[nH]c3cnc(cc13)-c1cnn(C)c1COCCO2 [Cpd. 75, methyl (11E)-1-methyl-1,18,19,21-tetrahydro-8H-10,7,4-(ethan[1]yl[1,2]diylidene)pyrazolo[3,4-f][1,4,9,12,13]benzodioxatriazacyclooctadecine-14-carboxylate]",–,–,51,–,–
"CN1CCC(CNC(=O)c2ccc3c(c2)/C=C/c2n[nH]c4cnc(cc24)-c2cnn(C)c2OCCCO3)CC1 [Cpd. 76, (11E)-1-methyl-N-[(1-methylpiperidin-4-yl)methyl]-19,20-dihydro-1H,8H,18H-10,7,4-(ethan[1]yl[1,2]diylidene)pyrazolo[3,4-f][1,5,9,12,13]benzodioxatriazacyclooctadecine-14-carboxamide]",–,–,2.2,–,–
